EC50 data for 25 compounds are collected here from patent US9604964B2, “Dihydropyrazole GPR40 modulators” (BRISTOL-MYERS SQUIBB COMPANY, priority 2012, dated 2017).

Sequence of human GPR40 (O14842 whole entry): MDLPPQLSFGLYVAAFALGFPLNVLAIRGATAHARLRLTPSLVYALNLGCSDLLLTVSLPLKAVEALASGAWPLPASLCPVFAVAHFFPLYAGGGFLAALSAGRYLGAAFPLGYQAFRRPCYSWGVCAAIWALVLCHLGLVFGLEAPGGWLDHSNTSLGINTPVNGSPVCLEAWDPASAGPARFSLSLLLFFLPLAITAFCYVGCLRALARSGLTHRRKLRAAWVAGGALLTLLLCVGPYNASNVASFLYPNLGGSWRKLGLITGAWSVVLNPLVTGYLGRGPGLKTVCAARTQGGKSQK

The test concerns the target human GPR40 (Homo sapiens, UniProt O14842). Kind of test: FDSS-based intracellular calcium assay (Human GPR40 in vitro assay). It counts as cell-based. More on the design: 3xFLAG; expressed in transfected cells. The conditions noted are these: intracellular Ca2+ response, cells expressing GPR40; read-out: hGPR40 EC50. As to the method:
FDSS-based Intracellular Calcium Assay
Compounds are dissolved in DMSO and diluted to desired concentrations with assay buffer and added to the cells as 3× solution (20 μL per well). Run fluorescence/luminescence reader FDSS (Hamamatsu) to read intracellular Ca^2+ response.
Consider `COc1nc(N2CCC(Oc3ccc(N4N=C(C(F)(F)F)[C@@H](C)[C@@H]4CC(=O)O)cc3)CC2)ncc1F` [Example B29, 2-((4S,5S)-1-(4-((1-(5-Fluoro-4-methoxypyrimidin-2-yl)piperidin-4-yl)oxy)phenyl)-4-methyl-3-(trifluoromethyl)-4,5-dihydro-1H-pyrazol-5-yl)acetic acid], for which the EC50 (commonly the concentration giving half of the maximal effect) is 3.68 µM.
Then `COc1ccc(F)c(N2C(=O)[C@H]3C[C@@H]2CC3Oc2ccc(N3N=C(C(F)(F)F)[C@@H](C)[C@@H]3CC(=O)O)cc2)c1` (stereo partly drawn) [Example 67, 2-((4S,5S)-1-(4-(((1R,4S)-2-(2-fluoro-5-methoxyphenyl)-3-oxo-2-azabicyclo[2.2.1]heptan-5-yl)oxy)phenyl)-4-methyl-3-(trifluoromethyl)-4,5-dihydro-1H-pyrazol-5-yl)acetic acid], with 6.41 µM.
Then `COc1cc(N2CC(CCc3ccc(N4N=C(C(F)(F)F)[C@@H](C)[C@@H]4CC(=O)O)cc3)C2)c(Cl)cn1` [Example B36, 2-((4S,5S)-1-(4-(2-(1-(5-chloro-2-methoxypyridin-4-yl)azetidin-3-yl)ethyl)phenyl)-4-methyl-3-(trifluoromethyl)-4,5-dihydro-1H-pyrazol-5-yl)acetic acid], with 0.591 µM.
Then `COc1cncc(N2CCC(Oc3ccc(N4N=C(C(F)(F)F)[C@@H](C)[C@@H]4CC(=O)O)cc3)CC2)n1` [Example 53, 2-((4S,5S)-1-(4-((1-(6-methoxypyrazin-2-yl)piperidin-4-yl)oxy)phenyl)-4-methyl-3-(trifluoromethyl)-4,5-dihydro-1H-pyrazol-5-yl)acetic acid], with 4.2 µM; and `COc1cc(N2CCC(Oc3ccc(N4N=C(C#N)C(C)C4CC(=O)O)cc3)C(C)C2)c(Cl)cn1` (single isomer, unassigned) [Example B6, Isomer 2, 2-(1-(4-((1-(5-chloro-2-methoxypyridin-4-yl)-3-methylpiperidin-4-yl)oxy)phenyl)-3-cyano-4-methyl-4,5-dihydro-1H-pyrazol-5-yl)acetic acid], with 4.85 µM; and `COc1ccc(F)c(N2C[C@H]3C[C@@H]2CC3Oc2ccc(N3N=C(C(F)(F)F)[C@@H](C)[C@@H]3CC(=O)O)cc2)c1` (stereo partly drawn) [Example 69, 2-((4S,5S)-1-(4-(((1R,4R)-2-(2-fluoro-5-methoxyphenyl)-2-azabicyclo[2.2.1]heptan-5-yl)oxy)phenyl)-4-methyl-3-(trifluoromethyl)-4,5-dihydro-1H-pyrazol-5-yl)acetic acid], with 0.847 µM.
For the compound `COCC1CN(c2cc(OC)ncc2Cl)CCC1Oc1ccc(N2N=C(C(F)(F)F)[C@@H](C)[C@@H]2CC(=O)O)cc1` (single isomer, unassigned) [Example B3, Isomer 2], the 50% effective concentration (EC50) came out at 0.768 µM.
Take `COc1ccnc(N2CCC(Oc3ccc(N4N=C(C(F)(F)F)[C@@H](C)[C@@H]4CC(=O)O)cc3)CC2)n1` [Example B28, 2-((4S,5S)-1-(4-((1-(4-methoxypyrimidin-2-yl)piperidin-4-yl)oxy)phenyl)-4-methyl-3-(trifluoromethyl)-4,5-dihydro-1H-pyrazol-5-yl)acetic acid]: the EC50 turned out to be 5.27 µM.
Then `COc1ccc(F)c(N2C[C@@H]3C[C@H]2CC3Oc2ccc(N3N=C(C(F)(F)F)[C@@H](C)[C@@H]3CC(=O)O)cc2)c1` (stereo partly drawn) [Example 70, 2-((4S,5S)-1-(4-(((1S,4S)-2-(2-fluoro-5-methoxyphenyl)-2-azabicyclo[2.2.1]heptan-5-yl)oxy)phenyl)-4-methyl-3-(trifluoromethyl)-4,5-dihydro-1H-pyrazol-5-yl)acetic acid], with 1 µM; and `COc1cccc(N2CC3CCC(C2)C3Cc2ccc(N3N=C(C(F)(F)F)[C@@H](C)[C@@H]3CC(=O)O)cc2)c1` (stereo partly drawn) [Example B12, 2-((4S,5S)-1-(4-(((1R,5S,8S)-3-(3-methoxyphenyl)-3-azabicyclo[3.2.1]octan-8-yl)methyl)phenyl)-4-methyl-3-(trifluoromethyl)-4,5-dihydro-1H-pyrazol-5-yl)acetic acid], with 5.72 µM; and `C[C@@H]1C(C(F)(F)F)=NN(c2ccc(OC3CCN(c4cc(-n5cccn5)ccc4F)CC3)cc2)[C@H]1CC(=O)O` [Example B20, 2-((4S,5S)-1-(4-((1-(2-Fluoro-5-(1H-pyrazol-1-yl)phenyl)piperidin-4-yl)oxy)phenyl)-4-methyl-3-(trifluoromethyl)-4,5-dihydro-1H-pyrazol-5-yl)acetic acid], with 4.59 µM.
The value for `C[C@@H]1C(C(F)(F)F)=NN(c2ccc(OC3CCN(S(=O)(=O)C4CCCCC4)CC3)cc2)[C@H]1CC(=O)O` [Example B22, 2-((4S,5S)-1-(4-((1-(cyclohexylsulfonyl)piperidin-4-yl)oxy)phenyl)-4-methyl-3-(trifluoromethyl)-4,5-dihydro-1H-pyrazol-5-yl)acetic acid] was 1.33 µM.
Then `COc1cc(N2CCC(Oc3ccc(N4N=C(C(F)(F)F)[C@@H](C)[C@@H]4CC(=O)O)cc3)C3(CC3)C2)c(Cl)cn1` (stereo partly drawn) [Example B37, 2-((4S,5S)-1-(4-((5-(5-chloro-2-methoxypyridin-4-yl)-5-azaspiro[2.5]octan-8-yl)oxy)phenyl)-4-methyl-3-(trifluoromethyl)-4,5-dihydro-1H-pyrazol-5-yl)acetic acid], with 0.774 µM; and `COc1ccc(F)c(N2CCCC(Oc3ccc(N4N=C(C(F)(F)F)[C@@H](C)[C@@H]4CC(=O)O)cc3)CC2)c1` (stereo partly drawn) [Example 23, 2-((4S,5S)-1-(4-((1-(2-fluoro-5-methoxyphenyl)azepan-4-yl)oxy)phenyl)-4-methyl-3-(trifluoromethyl)-4,5-dihydro-1H-pyrazol-5-yl)acetic acid], with 3.02 µM.
In the case of `Cc1nc2ccc(N3CCC(Oc4ccc(N5N=C(C(F)(F)F)[C@@H](C)[C@@H]5CC(=O)O)cc4)CC3)cc2o1` [Example B18, 2-((4S,5S)-4-Methyl-1-(4-((1-(2-methylbenzo[d]oxazol-6-yl)piperidin-4-yl)oxy)phenyl)-3-(trifluoromethyl)-4,5-dihydro-1H-pyrazol-5-yl)acetic acid], the EC50 worked out at 5.2 µM.
The value for `COc1ccc(F)c(N2C3CCC2CC(Oc2ccc(N4N=C(C(F)(F)F)[C@@H](C)[C@@H]4CC(=O)O)cc2)C3)c1` (stereo partly drawn) [Example 2, 2-((4S,5S)-1-(4-((8-(2-fluoro-5-methoxyphenyl)-8-azabicyclo[3.2.1]octan-3-yl)oxy)phenyl)-4-methyl-3-(trifluoromethyl)-4,5-dihydro-1H-pyrazol-5-yl)acetic acid] was 0.644 µM; that for `COc1ccc(F)c(N2CCCC(Oc3ccc(N4N=C(C(F)(F)F)[C@@H](C)[C@@H]4CC(=O)O)cc3)C2)c1` (mixture of isomers) [Example B26, 2-((4S,5S)-1-(4-((1-(2-fluoro-5-methoxyphenyl)piperidin-3-yl)oxy)phenyl)-4-methyl-3-(trifluoromethyl)-4,5-dihydro-1H-pyrazol-5-yl)acetic acid] was 4.23 µM.
Then `C[C@@H]1C(C(F)(F)F)=NN(c2ccc(OC3CCN(C(=O)OC(C)(C)C)CC3)cc2)[C@H]1CC(=O)O` [Example 15, 2-((4S,5S)-1-(4-((1-(tert-butoxycarbonyl)piperidin-4-yl)oxy)phenyl)-4-methyl-3-(trifluoromethyl)-4,5-dihydro-1H-pyrazol-5-yl)acetic acid], with 1.72 µM.
The value for `CCOc1ccc(F)c(N2CCC(Oc3ccc(N4N=C(C#N)C(C)C4CC(=O)O)cc3)CC2)c1` (single isomer, unassigned) [Example B5 Isomer 1, 2-(3-cyano-1-(4-((1-(5-ethoxy-2-fluorophenyl)piperidin-4-yl)oxy)phenyl)-4-methyl-4,5-dihydro-1H-pyrazol-5-yl)acetic acid] was 0.389 µM; that for `COc1cc(N2CC(COc3ccc(N4N=C(C(F)(F)F)[C@@H](C)[C@@H]4CC(=O)O)cc3)C2)c(Cl)cn1` [Example B33, 2-((4S,5S)-1-(4-((1-(5-chloro-2-methoxypyridin-4-yl)azetidin-3-yl)methoxy)phenyl)-4-methyl-3-(trifluoromethyl)-4,5-dihydro-1H-pyrazol-5-yl)acetic acid] was 0.713 µM.
As to `COc1cc(N2CCC(Cc3ccc(N4N=C(C(F)(F)F)[C@@H](C)[C@@H]4CC(=O)O)cc3)CC2)c(Cl)cn1` [Example B10, 2-((4S,5S)-1-(4-((1-(5-chloro-2-methoxypyridin-4-yl)piperidin-4-yl)methyl)phenyl)-4-methyl-3-(trifluoromethyl)-4,5-dihydro-1H-pyrazol-5-yl)acetic acid], the concentration giving a half-maximal response (EC50) worked out at 0.517 µM.
Then `COc1cc(N2CC3CCC(C2)C3Cc2ccc(N3N=C(C(F)(F)F)[C@@H](C)[C@@H]3CC(=O)O)cc2)c(Cl)cn1` (stereo partly drawn) [Example B13, 2-((4S,5S)-1-(4-(((1R,5S,8S)-3-(5-chloro-2-methoxypyridin-4-yl)-3-azabicyclo[3.2.1]octan-8-yl)methyl)phenyl)-4-methyl-3-(trifluoromethyl)-4,5-dihydro-1H-pyrazol-5-yl)acetic acid], with 2.2 µM; and `C[C@@H]1C(C(F)(F)F)=NN(c2ccc(OC3CCN(c4ncc(Cl)cn4)CC3)cc2)[C@H]1CC(=O)O` [Example 7, 2-((4S,5S)-1-(4-((1-(5-chloropyrimidin-2-yl)piperidin-4-yl)oxy)phenyl)-4-methyl-3-(trifluoromethyl)-4,5-dihydro-1H-pyrazol-5-yl)acetic acid], with 4.48 µM.
Turning to `CCOc1ccc(F)c(N2CCC(Cc3ccc(N4N=C(C(F)(F)F)[C@@H](C)[C@@H]4CC(=O)O)cc3)C(C)C2)c1` (single isomer, unassigned) [Example 3 (Isomer 4)], the EC50 stood at 0.672 µM.
For `CC1CN(c2cc(OCC(F)(F)F)ccc2F)CCC1Oc1ccc(N2N=C(C(F)(F)F)[C@@H](C)[C@@H]2CC(=O)O)cc1` (stereo partly drawn) [Example 11, 2-((4S,5S)-1-(4-((1-(2-fluoro-5-(2,2,2-trifluoroethoxy)phenyl)-3-methylpiperidin-4-yl)oxy)phenyl)-4-methyl-3-(trifluoromethyl)-4,5-dihydro-1H-pyrazol-5-yl)acetic acid], the half-maximal effective concentration (EC50) amounted to 1.08 µM.
